Data published in PMC10622577, “Structural basis for stabilisation of the RAD51 nucleoprotein filament by BRCA2” (Nature Communications, 2023).

Key:
RAD51 S181C = assay: RAD51–TR2 disulphide cross-linking, SDS-PAGE; parameters: species or system human; settings: RAD51 S181C 10 μM, 0.5 μM ssDNA, 1.25 μM Cy3-TR2, 2 mM hydrogen peroxide 5 min; pH 7.5; non-reducing SDS-PAGE; repeated three times
From the text: To further validate our model of the RAD51–TR2 interaction, we mutated RAD51 S181 to a cysteine to enable disulphide formation with TR2 C3304, which would support its presence at the TR2-RAD51 interface, as identified in the structure.
Fig. 5 Structure-guided BRCA2 TR2 cross-linking to RAD51. A Drawing of the RAD51–TR2 interface, highlighting that amino acids BRCA2 C3304 and RAD51 S181 are spatially close, so that the RAD51 S181C mutant can form a disulphide bridge with C3304 in the TR2 peptide. B SDS-PAGE analysis of cross-linking reactions between RAD51 S181C and TR2 in the presence of hydrogen peroxide. Wild-type RAD51 and the reducing agent DTT were used as controls. Protein bands were visualised with Coomassie Blue. C Same experiment as in B, visualised with 532 nm excitation of the Cy3-labelled TR2 peptide. Experiment was repeated three times. Source data are provided as a Source Data file.
Cross-linking reactions were prepared in buffer: 25 mM HEPES pH 7.5, 150 mM NaCl, 2 mM ATP, 5 mM CaCl2, supplemented with 0.5 μM ssDNA. WT or S181C RAD51 was added to a final concentration of 10 μM and incubated for 15 minutes at room temperature. […] Each crosslinked sample was analysed by SDS-PAGE, using gel-loading dye with DTT (reducing) or without DTT (non-reducing), on a 12% Bis-Tris SDS-PAGE gel. […]

RAD51 D184A NPFs = assay: EMSA of TR2 titration on RAD51 D184A NPFs; assay type: binding, human
Method: To assess RAD51 nucleoprotein (NPF) formation, wild-type and mutant RAD51 proteins were incubated with DNA in buffer: 25 mM HEPES pH 7.5, 150 mM NaCl, 2 mM DTT, 2 mM ATP, 5 mM CaCl2 for 15 minutes at room temperature. For filament binding of the TR2 peptide or His6-MBP-TR2 protein, the RAD51 NPFs were incubated with TR2 for further 5 minutes at room temperature. For filament binding of BRC4, the BRC4 peptide was pre-mixed with RAD51 for 10 minutes at room temperature before addition of DNA. For experiments with mono-streptavidin (mSA)-capped DNA, mSA (Sigma) was added in 5× molar excess of biotin labels for 15 minutes at room temperature prior to the addition of RAD51. Concentrations are provided in figures and DNA sequences for each experiment are reported in Supplementary Table 1.
Before electrophoresis, samples were mixed with a 0.5:1 volume of 50% (w/v) sucrose solution and analysed on a pre-run 0.5% (w/v) agarose gel in 0.5× TB buffer at 35 V for 2.5 hours at 4 °C. DNA was visualised by excitation of the fluorescent tag or, in the case of unlabelled DNA, by SYBR Gold staining. Gels were imaged in a Typhoon FLA9000 by excitation at 473 nm for fluorescein-labelled DNA or SYBR Gold-stained gels, 532 nm excitation for Cy3-labelled DNA or 635 nm excitation for Cy5-labelled DNA.
Supplementary table 1. DNA oligos and peptides
Oligos Size (nt) Sequence (5’ – 3’)
D184A […] (forward), […]

DDQKNCKKRRALDFLSRLPLPPPVSPICTFVSPAAQKAFQPPRSCGTKY [TR2, BRCA2 TR2 peptide spanning amino acids 3260 to 3308]
formation of crosslinked RAD51–TR2 species (RAD51 S181C): readily detect formation of a crosslinked RAD51–TR2 species
reduction in TR2 binding, ssDNA versus dsDNA filaments (RAD51 D184A NPFs; EMSA, ssDNA compared with dsDNA): especially pronounced for filaments formed on ssDNA
TR2 binding relative to wild-type (RAD51 D184A NPFs; ss- and dsDNA, 25 mM HEPES pH 7.5, 150 mM NaCl, 2 mM ATP, 5 mM CaCl2, TR2 5 min, room temperature, ssDNA performed twice, dsDNA once): reduction in TR2 binding proportional to the decrease in charge at RAD51’s acidic patch
